Data from PubChem BioAssay (NCI).
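96-well plates; 48 h exposure; 5 concentrations. Endpoints by linear interpolation between flanking doses. Not reached: highest tested concentration assigned. TGI is the concentration that stops growth completely.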

Assays:
Experiment in all cases: NCI-60 cell line screen, 48 h
[1] = system: 786-0 renal
[2] = system: A498 renal
[3] = system: A549 NSCLC
[4] = system: ACHN renal
[5] = system: CAKI-1 renal
[6] = system: CCRF-CEM leukemia
[7] = system: COLO 205 colon
[8] = system: DLD-1 colon
[9] = system: DMS 114 small cell lung
[10] = system: DMS 273 small cell lung
[11] = system: EKVX NSCLC
[12] = system: HCC-2998 colon
[13] = system: HCT-116 colon
[14] = system: HCT-15 colon
[15] = system: HL-60(TB) leukemia
[16] = system: HOP-18 NSCLC
[17] = system: HOP-62 NSCLC
[18] = system: HOP-92 NSCLC
[19] = system: HT29 colon
[20] = system: IGROV1 ovarian
[21] = system: K-562 leukemia
[22] = system: KM12 colon
[23] = system: KM20L2 colon
[24] = system: LOX IMVI melanoma
[25] = system: M14 melanoma
[26] = system: M19-MEL melanoma
[27] = system: MALME-3M melanoma
[28] = system: MOLT-4 leukemia
[29] = system: NCI-H226 lung
[30] = system: NCI-H23 lung
[31] = system: NCI-H460 lung
[32] = system: NCI-H522 lung
[33] = system: OVCAR-3 ovarian
[34] = system: OVCAR-4 ovarian
[35] = system: OVCAR-5 ovarian
[36] = system: OVCAR-8 ovarian
[37] = system: RPMI-8226 leukemia
[38] = system: RXF 393 renal
[39] = system: SF-268 CNS
[40] = system: SF-295 CNS
[41] = system: SF-539 CNS
[42] = system: SK-MEL-2 melanoma
[43] = system: SK-MEL-28 melanoma
[44] = system: SK-MEL-5 melanoma
[45] = system: SK-OV-3 ovarian
[46] = system: SN12C renal
[47] = system: SNB-19 CNS
[48] = system: SNB-75 CNS
[49] = system: SNB-78 CNS
[50] = system: SR leukemia
[51] = system: SW-620 colon
[52] = system: TK-10 renal
[53] = system: U251 CNS
[54] = system: UACC-257 melanoma
[55] = system: UACC-62 melanoma
[56] = system: UO-31 renal
[57] = system: XF 498 CNS
[58] = system: LXFL 529 NSCLC
[59] = system: BT-549 breast
[60] = system: DU-145 prostate
[61] = system: HS 578T breast
[62] = system: MCF7 breast
[63] = system: MDA-MB-231 breast
[64] = system: MDA-MB-435
[65] = system: MDA-N
[66] = system: NCI/ADR-RES ovarian
[67] = system: PC-3 prostate
[68] = system: T-47D breast

SMILES: C1OC1CO[C@@H]1CO[C@H]2[C@@H]1OC[C@H]2OCC1CO1 (stereo partly specified)
- TGI [1]: > 100 µM
- TGI [2]: > 100 µM
- TGI [3]: > 100 µM
- TGI [4]: > 100 µM
- TGI [5]: > 100 µM
- TGI [6]: > 100 µM
- TGI [7]: > 100 µM
- TGI [8]: > 100 µM
- TGI [9]: > 100 µM
- TGI [10]: > 100 µM
- TGI [11]: > 100 µM
- TGI [12]: > 100 µM
- TGI [13]: > 100 µM
- TGI [14]: > 100 µM
- TGI [15]: > 100 µM
- TGI [16]: > 100 µM
- TGI [17]: > 100 µM
- TGI [18]: > 100 µM
- TGI [19]: > 100 µM
- TGI [20]: > 100 µM
- TGI [21]: > 100 µM
- TGI [22]: > 100 µM
- TGI [23]: > 100 µM
- TGI [24]: > 100 µM
- TGI [25]: > 100 µM
- TGI [26]: > 100 µM
- TGI [27]: > 100 µM
- TGI [28]: > 100 µM
- TGI [29]: > 100 µM
- TGI [30]: > 100 µM
- TGI [31]: > 100 µM
- TGI [32]: > 100 µM
- TGI [33]: > 100 µM
- TGI [34]: > 100 µM
- TGI [35]: > 100 µM
- TGI [36]: > 100 µM
- TGI [37]: > 100 µM
- TGI [38]: > 100 µM
- TGI [39]: > 100 µM
- TGI [40]: > 100 µM
- TGI [41]: > 100 µM
- TGI [42]: > 100 µM
- TGI [43]: > 100 µM
- TGI [44]: > 100 µM
- TGI [45]: > 100 µM
- TGI [46]: > 100 µM
- TGI [47]: > 100 µM
- TGI [48]: > 100 µM
- TGI [49]: > 100 µM
- TGI [50]: > 100 µM
- TGI [51]: > 100 µM
- TGI [52]: > 100 µM
- TGI [53]: > 100 µM
- TGI [54]: > 100 µM
- TGI [55]: > 100 µM
- TGI [56]: > 100 µM
- TGI [57]: > 100 µM

SMILES: COc1cccc(Cc2c3cc(OC)ccc3cc[n+]2C)c1
- TGI [1]: > 100 µM
- TGI [2]: > 100 µM
- TGI [3]: > 100 µM
- TGI [4]: > 100 µM
- TGI [5]: > 100 µM
- TGI [6]: > 100 µM
- TGI [8]: > 100 µM
- TGI [11]: > 100 µM
- TGI [12]: > 100 µM
- TGI [14]: > 100 µM
- TGI [17]: > 100 µM
- TGI [19]: > 100 µM
- TGI [21]: > 100 µM
- TGI [22]: > 100 µM
- TGI [23]: > 100 µM
- TGI [58]: > 100 µM
- TGI [25]: > 100 µM
- TGI [27]: > 100 µM
- TGI [28]: > 100 µM
- TGI [30]: > 100 µM
- TGI [31]: > 100 µM
- TGI [32]: 92.3 µM
- TGI [33]: > 100 µM
- TGI [34]: > 100 µM
- TGI [35]: > 100 µM
- TGI [36]: > 100 µM
- TGI [37]: > 100 µM
- TGI [39]: > 100 µM
- TGI [40]: > 100 µM
- TGI [42]: > 100 µM
- TGI [43]: > 100 µM
- TGI [44]: 65.4 µM
- TGI [46]: > 100 µM
- TGI [47]: > 100 µM
- TGI [48]: > 100 µM
- TGI [49]: > 100 µM
- TGI [51]: > 100 µM
- TGI [52]: > 100 µM
- TGI [53]: > 100 µM
- TGI [54]: 51.6 µM
- TGI [56]: > 100 µM
- TGI [57]: 70.7 µM

SMILES: Cc1sc(/N=C/c2c[nH]c3ccccc23)c(C#N)c1C
- TGI [1]: > 100 µM
- TGI [2]: 96.7 µM
- TGI [3]: > 100 µM
- TGI [4]: > 100 µM
- TGI [59]: > 100 µM
- TGI [5]: > 100 µM
- TGI [6]: 58.3 µM
- TGI [7]: > 100 µM
- TGI [60]: > 100 µM
- TGI [11]: > 100 µM
- TGI [12]: 70.5 µM
- TGI [13]: > 100 µM
- TGI [14]: > 100 µM
- TGI [15]: > 100 µM
- TGI [17]: > 100 µM
- TGI [18]: > 100 µM
- TGI [61]: > 100 µM
- TGI [19]: > 100 µM
- TGI [20]: > 100 µM
- TGI [21]: > 100 µM
- TGI [22]: > 100 µM
- TGI [24]: > 100 µM
- TGI [25]: > 100 µM
- TGI [27]: > 100 µM
- TGI [62]: > 100 µM
- TGI [63]: > 100 µM
- TGI [64]: > 100 µM
- TGI [65]: > 100 µM
- TGI [28]: > 100 µM
- TGI [29]: > 100 µM
- TGI [30]: > 100 µM
- TGI [31]: > 100 µM
- TGI [32]: > 100 µM
- TGI [66]: > 100 µM
- TGI [33]: 66.1 µM
- TGI [34]: > 100 µM
- TGI [35]: > 100 µM
- TGI [36]: > 100 µM
- TGI [67]: > 100 µM
- TGI [37]: > 100 µM
- TGI [38]: 74 µM
- TGI [39]: > 100 µM
- TGI [40]: > 100 µM
- TGI [41]: > 100 µM
- TGI [42]: > 100 µM
- TGI [43]: > 100 µM
- TGI [44]: 53.2 µM
- TGI [45]: > 100 µM
- TGI [46]: > 100 µM
- TGI [47]: > 100 µM
- TGI [48]: > 100 µM
- TGI [50]: > 100 µM
- TGI [51]: > 100 µM
- TGI [68]: > 100 µM
- TGI [52]: 74.9 µM
- TGI [53]: 96.4 µM
- TGI [54]: > 100 µM
- TGI [55]: 78.8 µM
- TGI [56]: > 100 µM

SMILES: CN(NC(=O)CCCl)C1=NCCCCN1
- TGI [1]: > 100 µM
- TGI [2]: > 100 µM
- TGI [3]: > 100 µM
- TGI [4]: > 100 µM
- TGI [59]: > 100 µM
- TGI [6]: > 100 µM
- TGI [7]: > 100 µM
- TGI [60]: > 100 µM
- TGI [11]: > 100 µM
- TGI [12]: > 100 µM
- TGI [13]: > 100 µM
- TGI [14]: > 100 µM
- TGI [15]: > 100 µM
- TGI [17]: > 100 µM
- TGI [18]: > 100 µM
- TGI [61]: > 100 µM
- TGI [19]: > 100 µM
- TGI [20]: > 100 µM
- TGI [21]: > 100 µM
- TGI [22]: > 100 µM
- TGI [24]: > 100 µM
- TGI [25]: > 100 µM
- TGI [27]: > 100 µM
- TGI [62]: > 100 µM
- TGI [63]: > 100 µM
- TGI [64]: > 100 µM
- TGI [65]: > 100 µM
- TGI [28]: > 100 µM
- TGI [29]: > 100 µM
- TGI [30]: > 100 µM
- TGI [31]: > 100 µM
- TGI [32]: > 100 µM
- TGI [66]: > 100 µM
- TGI [33]: > 100 µM
- TGI [34]: > 100 µM
- TGI [35]: > 100 µM
- TGI [36]: > 100 µM
- TGI [67]: > 100 µM
- TGI [37]: > 100 µM
- TGI [38]: > 100 µM
- TGI [39]: > 100 µM
- TGI [40]: > 100 µM
- TGI [41]: > 100 µM
- TGI [42]: > 100 µM
- TGI [43]: > 100 µM
- TGI [44]: > 100 µM
- TGI [45]: > 100 µM
- TGI [46]: > 100 µM
- TGI [47]: > 100 µM
- TGI [48]: > 100 µM
- TGI [50]: > 100 µM
- TGI [51]: > 100 µM
- TGI [68]: > 100 µM
- TGI [52]: > 100 µM
- TGI [53]: > 100 µM
- TGI [54]: > 100 µM
- TGI [55]: > 100 µM
- TGI [56]: > 100 µM
